Test results: article PMC9748837 (Chemico-Biological Interactions, 2021)

How the values were obtained:
[1] = target: T1, OATP2B1 (Homo sapiens, UniProt O94956); format: cell-based
T1 sequence (O94956 1-709): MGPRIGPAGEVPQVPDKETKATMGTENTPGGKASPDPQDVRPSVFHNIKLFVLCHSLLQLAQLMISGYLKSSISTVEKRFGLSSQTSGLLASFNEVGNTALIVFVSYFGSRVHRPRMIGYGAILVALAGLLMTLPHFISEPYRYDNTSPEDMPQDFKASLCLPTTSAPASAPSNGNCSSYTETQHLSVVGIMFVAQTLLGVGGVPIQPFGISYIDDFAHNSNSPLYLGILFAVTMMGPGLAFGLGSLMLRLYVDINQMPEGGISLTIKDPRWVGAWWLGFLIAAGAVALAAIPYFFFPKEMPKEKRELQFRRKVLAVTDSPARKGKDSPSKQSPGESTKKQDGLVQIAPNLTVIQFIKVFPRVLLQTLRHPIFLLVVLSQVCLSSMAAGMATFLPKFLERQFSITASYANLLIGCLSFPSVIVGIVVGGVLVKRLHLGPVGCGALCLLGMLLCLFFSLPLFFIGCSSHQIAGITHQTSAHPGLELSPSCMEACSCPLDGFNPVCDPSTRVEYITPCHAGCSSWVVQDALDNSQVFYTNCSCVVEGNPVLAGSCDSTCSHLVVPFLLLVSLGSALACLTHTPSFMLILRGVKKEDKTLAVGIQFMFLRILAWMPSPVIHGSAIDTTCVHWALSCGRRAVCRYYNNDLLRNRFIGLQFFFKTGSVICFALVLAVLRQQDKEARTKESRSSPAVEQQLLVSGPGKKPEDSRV

[2] = target: T2, OATP1B1 (Homo sapiens, UniProt Q9Y6L6); format: cell-based; settings: hek-oatp1b1 cells
T2 sequence (Q9Y6L6 1-691): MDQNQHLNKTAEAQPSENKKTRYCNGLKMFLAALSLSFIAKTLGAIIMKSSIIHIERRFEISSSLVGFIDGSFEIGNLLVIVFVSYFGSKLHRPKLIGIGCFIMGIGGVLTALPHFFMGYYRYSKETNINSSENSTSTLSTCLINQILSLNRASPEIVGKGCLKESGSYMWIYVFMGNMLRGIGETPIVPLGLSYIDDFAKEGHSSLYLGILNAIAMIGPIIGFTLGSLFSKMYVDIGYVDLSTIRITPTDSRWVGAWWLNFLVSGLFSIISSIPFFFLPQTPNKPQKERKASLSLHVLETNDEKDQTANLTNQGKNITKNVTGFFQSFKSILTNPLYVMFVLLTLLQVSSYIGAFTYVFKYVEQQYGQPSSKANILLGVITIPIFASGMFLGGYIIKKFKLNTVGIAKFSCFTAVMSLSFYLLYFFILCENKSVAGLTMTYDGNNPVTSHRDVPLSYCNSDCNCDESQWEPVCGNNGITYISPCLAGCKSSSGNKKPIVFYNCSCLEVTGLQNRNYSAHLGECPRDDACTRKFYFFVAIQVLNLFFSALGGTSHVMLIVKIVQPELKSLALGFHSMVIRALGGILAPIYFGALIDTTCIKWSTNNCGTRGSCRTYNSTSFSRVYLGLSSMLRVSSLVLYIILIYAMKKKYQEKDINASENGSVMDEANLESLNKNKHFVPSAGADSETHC

IC50 [1]: 11.1 ± 3.3 µM
inhibition at 100 µM [2]: ~50%
SMILES: N=C(N)Nc1ccc(C(=O)Oc2ccc(CC(=O)O)cc2)cc1 [GBPA, 4-(4-guanidinobenzoyloxy)phenylacetic acid]
